Source: US20120309821A1, “Use of epigallocatechin-3-gallate for immune regulation” (NATIONAL DEFENSE MEDICAL CENTER, priority 2011, published 2012)

Legend:
Assay type in all cases: in vivo, mouse
Nrf2 = assay: Western blot of nuclear Nrf2 in kidney; conditions: 120 mg/kg by gavage daily, week 34, compared to disease controls
Method: Female NZB/W F1 mice were purchased from the Animal Center of the National Taiwan University (Taipei, Taiwan, ROC) and, at 12 weeks of age, were divided into two groups, one of which was given normal saline and served as the disease control, while the other was given 120 mg/kg body weight of EGCG (Ryss Lab, Inc., CA, USA) (this dose is a slight modification of those used in previous in vivo studies) by gavage daily till sacrificed at 34-weeks-old. 8-Week-old NZB/W F1 female mice (prior to onset of autoantibody production) were used as normal controls. Urine samples were collected in metabolic cages every 2 weeks and urine protein levels were measured, and serum samples were used to measure serum levels of blood urea nitrogen (BUN) and creatinine (Cr) as described previously (Ka, S. M. et al. Decoy receptor 3 ameliorates an autoimmune crescentic glomerulonephritis model in mice. J Am Soc Nephrol 18:2473-2485; 2007). All animal experiments were performed upon the ethical approval of the Institutional Animal Care and Use Committee of the National Defense Medical Center, Taiwan and according to the ethical rules in the NIH Guide for the Care and Use of Laboratory Animals. […] Antibodies to histone H3 (Cell Signaling) or β-actin (Santa Cruz) were used as internal controls for the nuclear and cytosolic target proteins, respectively.

[1] = system: NZB/W F1 lupus-prone mice; assay: Urine protein time course in NZB/W F1 lupus-prone mice; conditions: 120 mg/kg EGCG by gavage daily from 12 weeks of age; weeks 28-34; vs disease control mice
Method: (§1) Female NZB/W F1 mice were purchased from the Animal Center of the National Taiwan University (Taipei, Taiwan, ROC) and, at 12 weeks of age, were divided into two groups, one of which was given normal saline and served as the disease control, while the other was given 120 mg/kg body weight of EGCG (Ryss Lab, Inc., CA, USA) (this dose is a slight modification of those used in previous in vivo studies) by gavage daily till sacrificed at 34-weeks-old. 8-Week-old NZB/W F1 female mice (prior to onset of autoantibody production) were used as normal controls. Urine samples were collected in metabolic cages every 2 weeks and urine protein levels were measured, and serum samples were used to measure serum levels of blood urea nitrogen (BUN) and creatinine (Cr) as described previously (Ka, S. M. et al. Decoy receptor 3 ameliorates an autoimmune crescentic glomerulonephritis model in mice. J Am Soc Nephrol 18:2473-2485; 2007). All animal experiments were performed upon the ethical approval of the Institutional Animal Care and Use Committee of the National Defense Medical Center, Taiwan and according to the ethical rules in the NIH Guide for the Care and Use of Laboratory Animals.

superoxide anion = assay: Kidney in-situ ROS production by dihydroethidium (DHE) labeling; conditions: 120 mg/kg by gavage daily, week 34
Method: as §1, with “[…] Kidney in situ superoxide anion production was determined by dihydroethidium (DHE) labeling. Fluorescent images” for “All animal experiments”, “quantified by counting” for “performed upon”, “percentage” for “ethical approval”, “positive nuclei” for “the Institutional Animal Care and Use Committee of the National Defense Medical Center, Taiwan and according to the ethical rules”, “total nuclei per kidney cross-section. Superoxide anion levels in serum and kidney tissues were measured as described previously and” for “NIH Guide for”, “results expressed as reactive luminescence units (RLU) per 15 min per milligram dry weight (i.e., RLU/15 min/mg dry weight).” for “Care and Use of Laboratory Animals.”

IL-1β = assay: Serum IL-1β ELISA; conditions: 120 mg/kg by gavage daily; week 34; vs disease control mice
Method: as §1, with “Animals. Serum levels of IL-1β and IL-18 were measured using commercial ELISA kits (BD Biosciences) according to the manufacturer's instructions.” for “Animals.”

NF-κB p65 = assay: Renal nuclear NF-κB p65 activation ELISA (TransAM); conditions: 120 mg/kg by gavage daily; week 34; increase seen in disease control
Method: as §1, with “All animal experiments were performed upon the ethical approval of the Institutional Animal Care and Use Committee of the National Defense Medical Center, Taiwan and according to the ethical rules in the NIH Guide for the Care and Use of Laboratory Animals.” left out
Nuclear protein from renal cortex was extracted using a Nuclear Extract Kit (Active Motif) according to the manufacturer's instructions and nuclear NF-κB p65 activation quantified using an ELISA-based TransAM NF-κB kit (Active Motif, Tokyo, Japan) according to the manufacturer's protocol by reading the absorbance on an ELISA plate reader (Bio-Tek, VT, USA) at 450 nm with a reference wavelength of 655 nm.

[2] = system: NZB/W F1 lupus-prone mice; assay: Serum BUN and creatinine (renal function) in NZB/W F1 mice; conditions: 120 mg/kg by gavage daily; week 34; vs disease control mice
Method: as §1

## Epigallocatechin-3-gallate [EGCG]
Nrf2
  Nrf2 translocation into the nucleus: markedly increased
[1]
  urine protein levels: markedly inhibited
Superoxide anion
  DHE fluorescence (in-situ ROS production in renal tissue): very low
IL-1β
  serum levels of IL-1β: significantly lower
NF-κB p65
  nuclear NF-κB p65 levels (ELISA, renal nuclear protein extracts): significantly inhibited
[2]
  serum levels of BUN: significantly lower
  serum levels of Cr: significantly lower
